Measured values reported in PubChem BioAssay (NCI).
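Values below derive from 48-hour exposures of cells grown in 96-well plates, with endpoints linearly interpolated between the two concentrations bracketing the appropriate inhibition level. At the GI50, growth is halved. The concentration for full growth arrest is given as TGI.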

Tests used:
Experiment in all cases: NCI anticancer screen, dose series, 48 h
CCRF-CEM leukemia = system: CCRF-CEM leukemia
COLO 205 colon = system: COLO 205 colon
HCT-116 colon = system: HCT-116 colon
K-562 leukemia = system: K-562 leukemia
LOX IMVI melanoma = system: LOX IMVI melanoma
MDA-MB-231 breast = system: MDA-MB-231 breast
OVCAR-3 ovarian = system: OVCAR-3 ovarian
RPMI-8226 leukemia = system: RPMI-8226 leukemia
SN12C renal = system: SN12C renal
UO-31 renal = system: UO-31 renal

Row | SMILES | GI50 (CCRF-CEM leukemia) [µM] | TGI (CCRF-CEM leukemia) [µM] | GI50 (COLO 205 colon) [µM] | TGI (COLO 205 colon) [µM] | GI50 (HCT-116 colon) [µM] | TGI (HCT-116 colon) [µM] | GI50 (K-562 leukemia) [µM] | TGI (K-562 leukemia) [µM] | GI50 (LOX IMVI melanoma) [µM] | TGI (LOX IMVI melanoma) [µM] | GI50 (MDA-MB-231 breast) [µM] | TGI (MDA-MB-231 breast) [µM] | GI50 (OVCAR-3 ovarian) [µM] | TGI (OVCAR-3 ovarian) [µM] | GI50 (RPMI-8226 leukemia) [µM] | TGI (RPMI-8226 leukemia) [µM] | GI50 (SN12C renal) [µM] | TGI (SN12C renal) [µM] | GI50 (UO-31 renal) [µM] | TGI (UO-31 renal) [µM]
1 | CCn1cc(C(=O)O)c(=O)c2cc(F)c(N3CCN(S(=O)(=O)c4ccc(Cl)cc4Cl)CC3)cc21 | 3.03 | > 100 | 2.44 | 5.1 | 3.56 | > 100 | 4 | > 100 | 1.48 | 3.08 | 1.88 | 4.7 | 2.54 | 5.79 | 2.55 | 7.59 | 2.77 | > 100 | 2.2 | 5.77
2 | CC[C@H](C)[C@H](NC(=O)[C@H]1CCCCN1C)C(=O)N(C)[C@H](CCc1nc(C(=O)N[C@@H](Cc2ccccc2)C[C@H](C)C(=O)O)cs1)C(C)C | 0.0857 | > 25 | 0.144 | 1.83 | 0.133 | > 25 | 0.0585 | > 25 | 0.123 | > 25 | 0.596 | > 25 | 0.0371 | 0.181 | 0.1 | > 25 | 0.445 | > 25 | > 14.1 | > 25
3 | COc1cc(C(=O)c2cnc(-c3c[nH]c4cccc(C)c34)[nH]2)cc(OC)c1OC | 0.00824 | > 100 | 0.00513 | 0.0412 | 0.00346 | 11.1 | 0.00363 | 17.4 | 0.0151 | > 100 | 0.0204 |  | 0.00332 | 0.0125 | 0.0399 | 19.8 | 0.00929 | > 100 | 0.00965 | 14.7
4 | O=C1CCC(c2ccccc2)=NN1c1nc2ccccc2s1 |  | 71.8 |  | 18.1 |  | > 88.2 |  | > 100 |  | > 100 |  | 55.9 |  | 42.4 |  | > 87.9 |  | > 94.1 |  | > 100
5 | CCN(CC)c1ccc(/C=N/NC(=O)Cc2ccc(Nc3ccnc(C(F)(F)F)c3)cc2)c(O)c1 | 0.256 | > 100 | 1.24 | > 100 | 0.46 | > 100 | 0.49 | > 100 | 0.413 | 3.8 | 0.842 | > 100 | 0.473 | > 100 | 0.521 | 54.2 | 1.15 | > 100 | 0.482 | > 100
6 | Cn1cc(-c2cc(-c3cn(C)c4ccccc34)[nH]n2)c2ccccc21 | 14.4 | 29.3 | 7.98 | > 100 | 19 | > 100 | 42.1 | > 100 | 5.38 | > 100 | 8.06 | > 100 | 28.4 | > 100 | 37.8 | > 100 | 1.95 | 23.1 | 37.6 | > 100
7 | O=C(O)CNc1ccc2c(c1)Cc1cc(Br)ccc1-2 |  | > 100 |  | > 71 |  | > 49.1 |  | > 40.9 |  | > 100 |  | > 68.9 |  | > 100 |  | > 95.5 |  | > 69.4 |  | > 100
